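Five compound concentrations were applied to cells in 96-well plates for 48 hours; endpoints were derived by simple linear interpolation of the resulting dose-response curve. GI50 = concentration required for 50% inhibition of growth.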 Calls of active or inactive are those of the source. Rule as the data show it: active = GI50 up to about 1.1 µM and inactive = higher.
Columns and labels:
Experiment in all cases: NCI-60 cell line screen, 48 h
[1] = tested on: 786-0
[2] = tested on: A498
[3] = tested on: A549
[4] = tested on: ACHN
[5] = tested on: BT-549
[6] = tested on: CAKI-1
[7] = tested on: CCRF-CEM
[8] = tested on: COLO 205
[9] = tested on: DU-145
[10] = tested on: EKVX
[11] = tested on: HCC 2998
[12] = tested on: HCT-116
[13] = tested on: HCT-15
[14] = tested on: HOP-62
[15] = tested on: HOP-92
[16] = tested on: HT-29
[17] = tested on: IGROV-1
[18] = tested on: K562
[19] = tested on: KM12
[20] = tested on: LOX IMVI
[21] = tested on: M14
[22] = tested on: MCF7
[23] = tested on: MDA-MB-231
[24] = tested on: MDA-MB-435
[25] = tested on: MDA-N
[26] = tested on: MOLT-4
[27] = tested on: Malme-3M
[28] = tested on: NCI-H226
[29] = tested on: NCI-H23
[30] = tested on: NCI-H460
[31] = tested on: NCI-H522
[32] = tested on: NCI/ADR-RES
[33] = tested on: OVCAR-3
[34] = tested on: OVCAR-4
[35] = tested on: OVCAR-5
[36] = tested on: OVCAR-8
[37] = tested on: PC-3
[38] = tested on: RPMI-8226
[39] = tested on: RXF 393
[40] = tested on: SF-268
[41] = tested on: SF-295
[42] = tested on: SF-539
[43] = tested on: SK-MEL-28
[44] = tested on: SK-MEL-2
[45] = tested on: SK-MEL-5
[46] = tested on: SK-OV-3
[47] = tested on: SN12C
[48] = tested on: SNB-19
[49] = tested on: SNB-75
[50] = tested on: SR
[51] = tested on: SW-620
[52] = tested on: T47D
[53] = tested on: TK-10
[54] = tested on: U-251
[55] = tested on: UACC-257
[56] = tested on: UACC-62
[57] = tested on: UO-31
[58] = tested on: HL-60
[59] = tested on: Hs-578T

Measured: GI50

COc1cccc2c1CCc1cc3c(N)nc(N)nc3nc1-2
5.21 µM: [13]
active: [20] 0.34 µM | [26] 0.653 µM
inactive: [1] 2.08 µM | [2] 9.27 µM | [3] 2.45 µM | [4] 5.75 µM | [5] 26.4 µM | [6] 5.45 µM | [7] 2.55 µM | [8] 4.02 µM | [9] 5.16 µM | [10] 2.12 µM | [11] 2.29 µM | [12] 2.55 µM | [14] 5.4 µM | [15] 14 µM | [16] 2.41 µM | [17] 5.86 µM | [18] 2.23 µM | [19] 5.47 µM | [21] 4.22 µM | [22] 6.31 µM | [23] 3.09 µM | [24] 5.3 µM | [25] 2.94 µM | [27] 5.14 µM | [28] 12.6 µM | [29] 5.06 µM | [30] 4.83 µM | [31] 5.18 µM | [32] 16.7 µM | [33] 7.26 µM | [34] 6.22 µM | [35] 6.92 µM | [36] 3.31 µM | [37] 5.38 µM | [38] 2.12 µM | [39] 3.02 µM | [40] 6.73 µM | [41] 4.42 µM | [42] 1.79 µM | [43] 2.78 µM | [44] 13.3 µM | [45] 3.09 µM | [46] 17.7 µM | [47] 6.43 µM | [48] 5.45 µM | [49] 5.98 µM | [50] 3.41 µM | [51] 3.65 µM | [52] 7.94 µM | [53] 10.9 µM | [54] 2.67 µM | [55] 5.73 µM | [56] 7.23 µM | [57] 3.21 µM

O=c1[nH]c2ccc(CC(=S)N3CCOCC3)cc2s1
> 100 µM: [13]
inactive: [1] > 100 µM | [2] > 100 µM | [4] > 100 µM | [5] > 100 µM | [6] > 100 µM | [7] > 100 µM | [8] > 100 µM | [9] > 100 µM | [10] > 100 µM | [12] > 100 µM | [58] 53.6 µM | [14] > 100 µM | [16] > 100 µM | [59] > 100 µM | [17] > 100 µM | [18] > 100 µM | [19] > 100 µM | [20] > 100 µM | [21] > 100 µM | [22] > 100 µM | [23] > 100 µM | [24] > 100 µM | [25] > 100 µM | [26] > 100 µM | [27] > 100 µM | [28] > 100 µM | [29] > 100 µM | [30] > 100 µM | [32] > 100 µM | [33] > 100 µM | [35] > 100 µM | [36] > 100 µM | [37] > 100 µM | [38] > 100 µM | [39] > 100 µM | [40] > 100 µM | [41] > 100 µM | [42] > 100 µM | [43] > 100 µM | [44] > 100 µM | [45] > 100 µM | [46] > 100 µM | [47] > 100 µM | [48] > 100 µM | [50] > 100 µM | [51] > 100 µM | [53] > 100 µM | [54] > 100 µM | [55] > 100 µM | [56] > 100 µM

CCOC(=O)C(CCc1ncnc2c1ncn2Cc1ccccc1)(CCc1ncnc2c1ncn2Cc1ccccc1)C(=O)OCC
52.7 µM: [13]
inactive: [1] 41.1 µM | [2] 47.4 µM | [3] 39.2 µM | [4] 81.8 µM | [5] 76.6 µM | [6] 51.8 µM | [8] 24.2 µM | [9] 89.3 µM | [10] 63.7 µM | [11] 19.9 µM | [12] 51.4 µM | [58] 38.3 µM | [14] > 100 µM | [15] 69.7 µM | [16] 42.9 µM | [59] 83.2 µM | [17] 89.9 µM | [18] 42.5 µM | [19] 46.9 µM | [20] 44.4 µM | [21] 54.6 µM | [22] 37.9 µM | [23] 53.3 µM | [24] 52.1 µM | [25] 33 µM | [26] 13.4 µM | [27] 61.7 µM | [28] 27.7 µM | [29] 46.1 µM | [30] 40.4 µM | [31] 33.9 µM | [32] 49.7 µM | [33] 90.8 µM | [34] 59.4 µM | [35] > 100 µM | [36] 64.1 µM | [37] 27 µM | [38] 23.6 µM | [39] 32.4 µM | [40] 69.5 µM | [41] 70.3 µM | [42] 30.3 µM | [43] 98.9 µM | [44] 44.1 µM | [45] 48.5 µM | [47] 58.6 µM | [48] > 100 µM | [50] 26.4 µM | [51] > 100 µM | [53] 82.6 µM | [54] 62.1 µM | [55] 31.7 µM | [56] 26.2 µM | [57] 2.64 µM

N#Cc1c(-c2ccc(Cl)cc2)c2c(n(C3OC(CO)C(O)C(O)C3O)c1=S)CCCC2 (stereo unspecified)
inactive: [1] 60.8 µM | [2] 49.3 µM | [3] > 100 µM | [4] 79.8 µM | [5] 25.5 µM | [6] > 100 µM | [7] 49.3 µM | [8] 38.3 µM | [9] > 100 µM | [10] 56.1 µM | [11] > 100 µM | [12] 53.1 µM | [58] 24.7 µM | [14] 85.3 µM | [15] 46 µM | [16] 73.3 µM | [59] > 100 µM | [17] 59.2 µM | [18] 37.8 µM | [19] 50 µM | [20] 47.2 µM | [21] > 100 µM | [22] 55.2 µM | [23] 53.6 µM | [24] 54.8 µM | [25] 44.2 µM | [26] 26.1 µM | [27] 50.8 µM | [28] > 100 µM | [29] > 100 µM | [30] 54.2 µM | [31] 63.2 µM | [32] > 100 µM | [33] 69.8 µM | [34] 82.2 µM | [35] > 100 µM | [36] 80.4 µM | [37] 56.2 µM | [38] 44.3 µM | [39] > 10 µM | [40] > 100 µM | [41] > 100 µM | [42] > 100 µM | [43] 78.7 µM | [44] > 100 µM | [45] 18.4 µM | [47] 68.5 µM | [48] 39.1 µM | [49] > 100 µM | [50] 39.2 µM | [51] 74 µM | [53] 72.4 µM | [54] 64.9 µM | [55] > 100 µM | [57] 74.5 µM
> 100 µM: [13]

CC(C)CCc1c(Cl)nc(Cl)nc1Cl
3.47 µM: [13]
inactive: [1] 20.3 µM | [3] 21.7 µM | [4] 21.2 µM | [5] 4.1 µM | [9] 17.3 µM | [10] 26.2 µM | [11] 16.5 µM | [12] 2.48 µM | [58] > 100 µM | [14] 16.4 µM | [16] 12.8 µM | [59] 17.9 µM | [17] 18 µM | [18] 3.41 µM | [19] > 10 µM | [21] 3.61 µM | [22] 13.8 µM | [24] 6.18 µM | [25] 3.98 µM | [27] 6.12 µM | [28] 4.44 µM | [29] 8.97 µM | [30] 15.5 µM | [31] 2.71 µM | [32] 28.2 µM | [33] 11.9 µM | [34] 19.7 µM | [35] 28.1 µM | [36] > 10 µM | [37] 13.6 µM | [38] 30.7 µM | [39] 3.89 µM | [40] 17.6 µM | [41] 18.1 µM | [42] 24.8 µM | [43] 9.04 µM | [44] 16 µM | [45] 4.07 µM | [46] 17 µM | [47] 10.7 µM | [48] 22 µM | [49] 10 µM | [51] 1.4 µM | [53] 21.1 µM | [54] 11.8 µM | [55] 16.7 µM | [56] 12 µM | [57] 20.1 µM
active: [7] 0.33 µM | [20] 0.726 µM | [26] 0.783 µM
